Consider eleven molecules from ChEMBL document CHEMBL1201862, “PubChem BioAssay data set” (2004).

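Step 1: Grow cells in 96-well plates. Step 2: Expose to compound for 48 hours at 5 concentrations. Step 3: Interpolate endpoints linearly; if unreached, use highest concentration. GI50 marks 50% less growth.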 The source made the active and inactive calls. Rule as the data show it: active = GI50 up to about 1.1 µM and inactive = higher. Square brackets hold non-standard residues; d marks the D form. Peptide text beside a SMILES is read from it. * marks the point of attachment. Tyr(3-Br) = N[C@@H](Cc1ccc(O)c(Br)c1)C(=O)O; Boc = CC(C)(C)OC(=O)*

What all share (test): NCI-60 cell line screen, 48 h
The subject of test [1] is SK-OV-3.
Test [2] concerns SNB-19.
In test [3] the test system is OVCAR-4.
Test [4] deals with OVCAR-3.
Test [5] has as its system T47D.
The test system of test [6] is CCRF-CEM.
In test [7] the test system is M14.
The subject of test [8] is HCT-116.
For test [9], the system named is ACHN.
For test [10], the system named is SR.
The subject of test [11] is NCI-H226.
Test [12] has as its system HOP-62.
In test [13] the test system is UACC-257.
The subject of test [14] is OVCAR-8.
Test [15] concerns LOX IMVI.
Test [16] has as its system Malme-3M.
Test [17] concerns SW-620.
Test [18] deals with MOLT-4.
In test [19] the test system is UACC-62.
Test [20] concerns MDA-MB-231.

Consider `COC(=O)[C@H](Cc1ccc(O)c(Br)c1)NC(=O)[C@H](Cc1ccc(O)cc1)NC(=O)OC(C)(C)C` (Boc-Tyr-[Tyr(3-Br)]-OMe), for which the GI50 is > 100 µM (inactive) in test [1]; > 100 µM (inactive) in [2]; 29.8 µM (inactive) in [3]; 20.7 µM (inactive) in test [4]; 20.8 µM (inactive) in test [5]; 23.8 µM (inactive) in test [6]. Also, the GI50 was 33.1 µM (inactive) in [7]; 45.6 µM (inactive) in test [8]; 37.3 µM (inactive) in test [9]; 44.6 µM (inactive) in test [10]; > 100 µM (inactive) in [11]; > 100 µM (inactive) in test [12]. Further, the GI50 in [13] is 43.8 µM (inactive); in test [14], 19.9 µM (inactive); in test [15], 22.5 µM (inactive); in test [16], 24.5 µM (inactive); in [17], 42.6 µM (inactive); in [18], 48.2 µM (inactive).
For the molecule `COC(=O)CCC(NC(=O)C(C)NC(=O)COC1C(O)C(OC(=O)CCNc2c3ccccc3nc3cccc([N+](=O)[O-])c23)OC(OCc2ccccc2)C1NC(C)=O)C(N)=O` (configuration not stated), the GI50 in [1] was > 10 µM (inactive); in [2] it was 5.36 µM (inactive); in [19], 3.08 µM (inactive); in test [20] it was 3.48 µM (inactive); in test [4], 5.42 µM (inactive); in test [5] it was > 10 µM (inactive). In addition, the GI50 in test [6] is > 10 µM (inactive); in test [7] it was 2.79 µM (inactive); in [8], 1.64 µM (inactive); in test [9] it was 3.61 µM (inactive); in [11] it was > 10 µM (inactive); in [12], 3.7 µM (inactive). Besides, the GI50 was > 10 µM (inactive) in test [13]; 6.5 µM (inactive) in test [14]; > 10 µM (inactive) in test [15]; 2.22 µM (inactive) in test [16]; 0.114 µM (active) in test [17]; 3 µM (inactive) in test [18].
Take `CCOC(=O)c1c[nH]c(C(=O)C=[N+]=[N-])c1C1CCN(CC)C1=S` (configuration not stated): the GI50 in test [1] is > 100 µM (inactive); in [2], > 100 µM (inactive); in [19], > 100 µM (inactive); in test [3] it was > 100 µM (inactive); in test [20] it was > 100 µM (inactive); in test [4] it was 94 µM (inactive). The GI50 in test [5], in [7], in test [8], in test [9], in test [12] and in test [13] was > 100 µM (inactive) throughout. Moreover, the GI50 in test [14], in [16], in test [17] and in test [18] was > 100 µM (inactive) each time.
With `CC(=O)OC1CCC2C3CCc4c(C)ccc(OS(=O)(=O)c5ccccc5)c4C3CCC12C` (configuration not stated), the GI50 was 34.2 µM (inactive) in test [1]; 47.1 µM (inactive) in [2]; 26.2 µM (inactive) in test [19]; 21.8 µM (inactive) in [3]; 19.3 µM (inactive) in [20]; 7.33 µM (inactive) in [4]. The GI50 in test [6] was 19.1 µM (inactive); in [8], 3.37 µM (inactive); in [9], 35.9 µM (inactive); in test [10] it was 6.82 µM (inactive); in test [11], 14.8 µM (inactive); in [12], 26.4 µM (inactive). Also, the GI50 in [13] is 73.3 µM (inactive); in [15] it was 7.41 µM (inactive); in [16], 50.4 µM (inactive); in [17], 63.5 µM (inactive); in [18], 6.32 µM (inactive).
As to `O=c1c2nn[nH]c2nc2n1CC(c1ccccc1)S2` (configuration not stated), the GI50 in test [1], in [2], in test [19], in test [3], in test [20] and in test [4] was > 100 µM (inactive) each time. Also, the GI50 in test [5], in [6], in test [8], in test [9], in test [11] and in test [12] was > 100 µM (inactive) each time. Moreover, the GI50 in [13], in [14], in [15], in test [16], in test [17] and in test [18] was > 100 µM (inactive) each time.
Regarding `Nc1cc(C(=O)O)nc(O)n1`, the GI50 in [1], in test [2], in test [19], in test [3], in [20] and in test [4] was > 100 µM (inactive) each time. In addition, the GI50 in test [6], in test [7], in test [8], in test [9], in [10] and in test [11] was > 100 µM (inactive) each time. The GI50 in test [12], in test [13], in [14], in [15], in [16] and in test [17] was > 100 µM (inactive) in each case. In addition, in test [18], the GI50 was > 100 µM (inactive).
Turning to `CCCC(=O)OCC1(CO)C/C(=C/CC(C(C)C)C(C)C)C(=O)O1` (configuration not stated), the GI50 in test [1], in [2], in test [19], in test [3], in [20] and in [4] was > 100 µM (inactive) each time. Also, the GI50 in test [5], in test [6], in [8], in test [9], in [11] and in test [12] was > 100 µM (inactive) in each case. The GI50 in [13] was > 100 µM (inactive); in [14], > 100 µM (inactive); in test [15], 17.4 µM (inactive); in test [16], 64.4 µM (inactive); in test [17], > 100 µM (inactive).
Turning to `CC(C)(O)/C=C\P(C)(=O)c1ccccc1` (configuration not stated), the GI50 in [1], in test [2], in test [19], in test [3], in test [4] and in test [5] was > 100 µM (inactive) throughout. In addition, the GI50 in [7], in [8], in test [9], in test [10], in test [11] and in [12] was > 100 µM (inactive) throughout. For the same molecule, the GI50 in test [13], in [14], in test [15], in test [16] and in test [17] was > 100 µM (inactive) in each case.
On to `Cc1cn(C2CC(n3cc(Cn4cc(Br)c(=O)[nH]c4=O)nn3)C(CO)O2)c(=O)[nH]c1=O` (configuration not stated), for which the GI50 was 63.2 µM (inactive) in test [1]; 37.8 µM (inactive) in test [2]; > 100 µM (inactive) in test [19]; > 100 µM (inactive) in test [3]; > 100 µM (inactive) in [20]; > 100 µM (inactive) in test [4]. For the same molecule, the GI50 is > 100 µM (inactive) in test [5]; 0.668 µM (active) in [6]; > 100 µM (inactive) in test [7]; 52.5 µM (inactive) in [8]; > 100 µM (inactive) in [9]; > 100 µM (inactive) in [12]. In addition, the GI50 in [13] is > 100 µM (inactive); in test [14], 13 µM (inactive); in test [15], > 100 µM (inactive); in test [16] it was > 100 µM (inactive); in test [17], > 100 µM (inactive); in test [18] it was 30.7 µM (inactive).
As to `C[C@H](CCC(=O)O)[C@H]1CC[C@H]2[C@@H]3[C@H](O)[C@H](O)[C@@H]4C[C@H](O)CC[C@]4(C)[C@H]3CC[C@]12C` [HYOCHOLIC ACID], the GI50 in [2], in test [19], in test [3], in test [20], in test [5] and in [6] was > 100 µM (inactive) each time. Besides, the GI50 in test [7], in test [8], in test [9], in test [11], in test [12] and in [13] was > 100 µM (inactive) in each case. For the same molecule, the GI50 in [14] was > 100 µM (inactive); in test [15], 30.2 µM (inactive); in test [16], > 100 µM (inactive); in test [17], > 100 µM (inactive); in [18], > 100 µM (inactive).
On to `COc1cc(S(=O)(=O)N/N=C/C=C/c2ccccc2)c(OC)cc1NC(C)=O`, for which the GI50 in [1] was > 100 µM (inactive); in [2], > 100 µM (inactive); in test [19] it was 86.9 µM (inactive); in [3], 19.6 µM (inactive); in [4], 40.7 µM (inactive); in test [5], 69.5 µM (inactive). Besides, the GI50 in test [6] is 69.5 µM (inactive); in test [7] it was 21.9 µM (inactive); in test [8], 91.2 µM (inactive); in test [9], > 100 µM (inactive); in test [10], 12.3 µM (inactive); in test [12] it was > 100 µM (inactive). For the same molecule, the GI50 in test [13] is 30.2 µM (inactive); in test [14], 12.2 µM (inactive); in test [15] it was 15.5 µM (inactive); in [16], 35.6 µM (inactive); in test [17], 25.4 µM (inactive).
